Where “and” joins values, the source holds several entries; their conditions need not be identical. Equal values may be shown once. Read-outs that look alike come from different tables or passages of the source.
Columns and labels:
[1] = Stability to light and pH; assay type: physicochemical; conditions: irradiation / exposure to light
[2] = test system: Friend Virus; test: Friend Virus-induced splenomegaly, WIS compounds (Example 8); assay type: in vivo, mice; parameters: Actual Spleen Weight / Average Spleen Weight: unit not given here; conditions: for Average % Inhibition / Average Spleen Weight / Actual Spleen Weight: Table VII; for Actual Spleen Weight: single animal
Experimental: The effects of compositions according to the present invention on the increase in spleen size (splenomegaly) of BALB/c mice (Jackson Labs, Bar Harbor, ME) was examined. In these experiments, the virus (10^6 focus forming units--FFU) was inoculated intravenously and 100 micrograms of the compounds indicated in Table II were administered to the mice intraperitoneally 24 hours later. Each compound was administered once to two mice. The animals were sacrificed ten days later and their spleens weighed.
As used in Table II (and subsequent Tables of this Example l(a) and (b), "average percent inhibition" is calculated as follows: [formula] wherein "ASWNC" designates "average spleen weight of negative control"; "ASWE" designates "average spleen weight of experimental (treated) subject"; and "ASWPC" designates "average spleen weight of positive control". Average spleen weight is the numerical average of spleen weights of each experimental group (in Table II each such group includes two members).
The AAB compounds whose synthesis is described above were assayed for antiviral activity. WIS-2, -3, -4, -5 and -6 were tested to determine their biological effects on Friend Virus-induced splenomegaly using the procedure and technique set forth in Example 1 above. The assay results (three mice per group were tested each at different concentrationss of the active composition except for the PBS-negative control wherein two animals per group were used) are reported in Table VII below.

[3] = target: T1, Radiation Leukemia Virus reverse transcriptase (Radiation murine leukemia virus, UniProt P11227); test: Radiation Leukemia Virus reverse transcriptase assay, supernatants from infected AQR cells (Examples 4 and 9); assay type: biochemical; conditions: for inhibition at 50 ng / inhibition at 0.0001 mg / inhibition at 0.0005 mg / inhibition at 0.001 mg / inhibition at 0.002 mg / inhibition at 0.005 mg / inhibition at 0.01 mg: 0.5 h; for inhibition at 0.01 mg: read-out: Average % Inhibition; for CPM: replicate
T1 construct: the reverse transcriptase of Radiation Leukemia Virus; endogenous in cells
Experimental: Supernatants (10 ml/tube) from B10.T(6R) cells (Meruelo et al. J. Exp. Med. 147: 470-487, 1978) chronically infected with Radiation Leukemia Virus (RadLV) were obtained by centrifugation of cells in culture at 4° C., 3500 rpm for 15 minutes. The top 2/3 of the supernatant were removed and aliquots were incubated for 30 minutes on ice with the indicated amounts of hypericin or protohypericin. […] Thereafter, supernatants were centrifuged at 100,000×g using a TI70 rotor (Beckman Instruments) for 1 hour at 4° C. The pellet was […] and analyzed for reverse transcriptase activity as follows.
The reverse transcriptase assay was performed in a volume of 100 microliters containing the following components:
The antiviral activity of HHA was tested using AQR (Bach and Meruelo, J. Exp. Med. 160:270-285, 1984) cells chronically infected with Radiation Leukemia Virus in the reverse transcriptase assay as described in Example 3 above.
The assays were conducted using the same procedure as in Example 3 above, using supernatants from infected AQR cells.

[4] = test system: retroviruses (virions); test: Direct inactivation of retroviruses (virions) in vitro (Example 10); assay type: biochemical, Radiation Leukemia Virus; conditions: Table IX
Summary of the method: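 RadLV-containing supernatants from chronically infected B10.T(6R) cells incubated 30 min on ice with hypericin or protohypericin. Virions then pelleted at 100,000×g for 1 h at 4° C and assayed for reverse transcriptase activity. EC50 is the micromolar concentration inhibiting 50% of virus.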

[5] = test system: virus budding in virus-producing cells; test: In vitro inhibition of virus budding: production of defective budded virions (Example 10); assay type: cell-based; conditions: in vitro; Table IX; read-out: EC50 for production of defective budded virions
Source text: (§1) The results presented above in Table IX are presented as EC50 concentrations. These are the effective concentrations which inhibit 50% of the viruses in micromolar concentrations.

[6] = test system: retroviruses; test: Comparison over two in vitro and one in vivo biological assays (Example 10); conditions: Example 10
Experimental: In order to investigate the structural features of hypericin which are essential for antiretroviral activity, numerous analogs and precursors of hypericin were examined for activity in two in vitro and one in vivo biological assay.
(1) Direct inactivation of retroviruses in vitro, performed as in Example 3 above;
(§2) (3) In vivo inhibition of Friend Leukemia Virus Splenomegaly performed as described in Example 1 above except that the compounds were administered intravenously 1-2 hours post infection.

[7] = test system: Friend Leukemia Virus; test: In vivo inhibition of Friend Leukemia Virus splenomegaly, intravenous 1-2 hours post infection (Example 10); parameters: species or system mice; conditions: Mus musculus, read-out: EC50 for FV-induced splenomegaly
Experimental: as §2, §1

## O=c1c2ccccc2c2c3c1c(O)cc(O)c3c1c(O)cc(O)c3c(=O)c4ccccc4c2c31 [WIS-2, Tetrahydroxy-dibenzoperylene-dione]
[1]
  stability to light: did not change upon irradiation
[2]; 1 microgram
  Average % Inhibition: 53.9%
  Average Spleen Weight: 0.7015
  Actual Spleen Weight: 0.6615 and 0.7519 and 0.6912
[2]; 10 micrograms
  Average % Inhibition: 62.7%
  Average Spleen Weight: 0.4701
  Actual Spleen Weight: 0.4263 and 0.4868 and 0.4972
[2]; 50 micrograms
  Average % Inhibition: 64.0%
  Average Spleen Weight: 0.4603
  Actual Spleen Weight: 0.4818 and 0.4925 and 0.4066
[2]; 150 micrograms
  Average % Inhibition: 66.3%
  Average Spleen Weight: 0.4416
  Actual Spleen Weight: 0.4075 and 0.4656 and 0.4517
[3]; 0.05 micrograms, Table VIII
  inhibition at 50 ng: 41.6%
[3]; 0.1 micrograms, Table VIII
  inhibition at 0.0001 mg: 70.8%
[3]; 0.5 micrograms, Table VIII
  inhibition at 0.0005 mg: 98.1%
[3]; 1 microgram, Table VIII
  inhibition at 0.001 mg: 98.7%
[3]; 2 micrograms, Table VIII
  inhibition at 0.002 mg: 99.5%
[3]; 5 micrograms, Table VIII
  inhibition at 0.005 mg: 99.5%
[3]; 10 micrograms, Table VIII
  inhibition at 0.01 mg: 99.5%

## O=c1c2c(O)ccc3c4ccc(O)c5c(=O)c6c(O)cc(O)c7c8c(O)cc(O)c1c8c(c23)c(c54)c67 [WIS-3, desmethylhypericin]
[2]; 1 microgram
  Average % Inhibition: 24.3%
  Average Spleen Weight: 0.7737
  Actual Spleen Weight: 0.7527 and 0.8048 and 0.7277
[2]; 10 micrograms
  Average % Inhibition: 24.1%
  Average Spleen Weight: 0.7759
  Actual Spleen Weight: 0.7727 and 0.8108 and 0.7413
[2]; 50 micrograms
  Average % Inhibition: 34.7%
  Average Spleen Weight: 0.6921
  Actual Spleen Weight: 0.6998 and 0.6723 and 0.7041
[2]; 150 micrograms
  Average % Inhibition: 79.7%
  Average Spleen Weight: 0.3290
  Actual Spleen Weight: 0.2967 and 0.3518 and 0.3384
[2]; Example 8
  antiviral activity in splenomegaly assay: most active compounds of the group in the splenomegaly assay
[4]
  EC50: 0.07 µM
[3]; 0.05 micrograms, Table VIII
  Average CPM: 78,424 CPM
  CPM: 89,170 CPM and 67,678 CPM
  inhibition at 50 ng: 90.4%
[3]; 0.1 micrograms, Table VIII
  Average CPM: 20,893 CPM
  CPM: 19,322 CPM and 22,464 CPM
  inhibition at 0.0001 mg: 97.4%
[3]; 0.5 micrograms, Table VIII
  Average CPM: 2,799 CPM
  CPM: 2,630 CPM and 2,968 CPM
  inhibition at 0.0005 mg: 99.7%
[3]; 1 microgram, Table VIII
  Average CPM: 24,606 CPM
  CPM: 21,896 CPM and 27,316 CPM
  inhibition at 0.001 mg: 97%
[3]; 2 micrograms, Table VIII
  Average CPM: 15,467 CPM
  CPM: 14,020 CPM and 16,914 CPM
  inhibition at 0.002 mg: 98.1%
[3]; 5 micrograms, Table VIII
  Average CPM: 76,907 CPM
  CPM: 75,776 CPM and 78,038 CPM
  inhibition at 0.005 mg: 90.6%
[3]; 10 micrograms, Table VIII
  Average CPM: 119,248 CPM
  CPM: 57,512 CPM and 61,736 CPM
[3]
  inhibition at 0.01 mg: 85.4%
[3]; Example 9
  inhibition of RadLV reverse transcriptase activity: highest level of antiviral activity of the compounds that were tested in this assay
[5]
  EC50: 2 µM
[6]
  activity across assays: high degree of activity in a more than one assay
[7]
  EC50: 174 µM

From US6150414A, “Compositions and methods for treating viral infections” (priority 1992, dated 2000)
